Experimental findings from patent publication US20150346214A1, “DETECTION OF MEMBRANE PROTEINS” (priority 2012, published 2015) are described below.

Test [1] concerns the target T1, mechanosensitive channel of large conductance (MscL) (Mycobacterium tuberculosis, UniProt P9WJN5).
T1 sequence (P9WJN5 1-151): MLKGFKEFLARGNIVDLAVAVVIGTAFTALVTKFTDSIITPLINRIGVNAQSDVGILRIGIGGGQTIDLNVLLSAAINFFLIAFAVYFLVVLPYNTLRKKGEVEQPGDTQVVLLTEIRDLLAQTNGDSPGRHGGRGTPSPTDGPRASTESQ
The test is described as follows: Phospholipid binding to MscL resolved by native MS / IM-MS in C8E4. Conditions: optimised P:L:D ratio of Table 2.

The target of the next test is ammonia channel (AmtB) (Escherichia coli, UniProt P69681). The test can be described thus: Phospholipid binding to AmtB resolved by native MS / IM-MS in C8E4. Further details: species or system E. coli. The conditions noted are these: AmtB in C8E4; optimised P:L:D ratio of Table 2.
For test [2], the target named is T2, Aquaporin Z (AQPZ) (Escherichia coli, UniProt P60844). The test can be described thus: Phospholipid binding to AQPZ resolved by native MS / IM-MS in C8E4. Further details: species or system E. coli. Conditions: for # Bound (number of resolvable phospholipids bound): AQPZ in C8E4, optimised P:L:D ratio of Table 2.
T2 sequence (P60844 whole entry, the tested form may be a part): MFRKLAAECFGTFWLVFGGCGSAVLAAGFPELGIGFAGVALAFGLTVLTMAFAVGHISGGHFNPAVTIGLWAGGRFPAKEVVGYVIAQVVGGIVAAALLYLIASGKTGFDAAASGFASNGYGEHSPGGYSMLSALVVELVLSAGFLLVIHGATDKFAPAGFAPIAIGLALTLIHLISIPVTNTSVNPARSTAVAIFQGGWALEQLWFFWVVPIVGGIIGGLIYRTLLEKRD
Test [3] concerns the target E. coli ammonium channel C-terminally fused to green fluorescent protein (AmtB-GFP) (Escherichia coli, UniProt P69681, S65T). The conditions noted are these: AmtB-GFP trimer in MS buffer with 2x CMC of the detergent; charge state envelopes modelled with a Gaussian. How it is done: The activation energy required to achieve resolved peaks of E. coli ammonium channel C-terminally fused to green fluorescent protein (AmtB-GFP) was assessed for a variety of non-ionic detergents.
AmtB-GFP was extracted from purified membranes (described above) with 1-2% (w/v) of the detergent of interest in Buffer B and incubated for one to three hours at room temperature or overnight at 4° C. Insoluble material was pelleted by centrifugation at 20,000 g for 25 minutes at 4° C. The clarified supernatant was loaded onto small Ni-NTA agarose (Qiagen) drip columns (Bio-spin Chromatography columns, Bio-Rad) and washed with several column volumes of Buffer C (200 mM sodium chloride, 20 mM Imidazole, 5 mM BME, 2× CMC detergent of interest, and 50 mM TRIS, pH 8.0 at room temperature). AmtB-GFP was eluted with two column volumes of Buffer D (100 mM sodium chloride, 250 mM Imidazole, 5 mM BME, 2× CMC detergent of interest, and 50 mM TRIS, pH 8.0 at room temperature). Eluted protein was concentrated using a 100 kDa MWCO concentrator and buffer exchanged into MS Buffer (2× CMC detergent of interest and 200 mM Ammonium Acetate, pH 8.0 with Ammonium Hydroxide) using a centrifugal buffer exchange device (Micro Bio-Spin 6, Bio-Rad).
Buffer exchanged protein was analysed on a Q-TOF 2 mass spectrometer (Micromass, Manchester, UK) with a Z-spray source including modifications for protein complexes after introduction of complexes from gold-coated nanoflow capillaries.

Another test deals with ammonium channel (AmtB) (Escherichia coli, UniProt P69681). The test is described as follows: Mass spectra and ion mobility MS of AmtB complex in three detergents (Example 2). Also noted: species or system E. coli. The conditions noted are these: for experimental collisional cross section (CCS) / folded state: AmtB, IM-MS, CIU fingerprints, C8E4 at ELAB <1500; for species in mass spectrum (expected oligomer versus dissociation products): trimeric AmtB, sample cone 10 volts, collision voltage 200 volts. How it is done: (§1) AmtB-GFP and AQPZ-GFP were extracted from purified membranes in 2% OG in Buffer B and incubated overnight at 4° C. Extracted membrane proteins were clarified by centrifugation at 20,000 g for 25 minutes at 4° C. The clarified supernatant was filtered before loading onto a 5 mL HisTrap-HP column (GE Healthcare, Piscataway, NJ) equilibrated in Buffer E (200 mM sodium chloride, 10% glycerol, 20 mM Imidazole, 0.025% DDM, and 50 mM TRIS, pH 7.4 at room temperature). After the clarified supernatant was loaded, the column was initially washed with 40-50 mL of Buffer E containing 1% OG instead of DDM followed by several column volumes of Buffer E until a steady baseline was reached. Protein was eluted with a linear gradient to 100% in two column volumes of Buffer F (100 mM sodium chloride, 10% glycerol, 500 mM Imidazole, 0.025% DDM, and 50 mM TRIS, pH 7.4 at room temperature). Peak fractions were pooled, supplemented with 5mM BME and His-tagged TEV protease, arid dialyzed against Buffer G (150 mM sodium chloride, 10% glycerol, 20 mM Imidazole, 0.02% DDM, and 50 mM TRIS, pH 7.4 at room temperature) overnight at 4° C. After overnight incubation at 4° C., samples were filtered and passed back over a 5 mL. HisTrap-HP column equilibrated in Buffer E. Flow through containing the untagged membrane protein was collected and concentrated using a 100 kDa MWCO concentrator. Concentrated protein was flash frozen in liquid nitrogen and stored at -80° C.
(§2) Frozen samples were thawed on ice prior to detergent exchange over gel filtration. Samples were injected on a Superdex 200 10/300 (GE Healthcare) equilibrated in Buffer H (130 mM sodium chloride, 10% glycerol, and 50 mM TRIS, pH 7.4 at room temperature) supplemented with 0.5% of C8E4, 0.4% of NG, or 0.02% of DDM. Peak fractions were concentrated using a 100 kDa MWCO concentrator. Concentrated protein was either used directly or flash-frozen in liquid nitrogen and stored at −80° C. Purified membrane proteins were buffer exchanged into MS Buffer (2× CMC detergent of interest and 200 mM Ammonium Acetate, pH 8.0 with Ammonium Hydroxide) using a centrifugal buffer exchange device (Micro Bio-Spin 6, Bio-Rad).
(§3) Buffer exchanged protein was analysed on a quadrupole ion mobility time-of-flight mass spectrometer (Synapt HDMS, Waters Corp.) modified with an 18 cm drift cell with radial RF confinement (RF amplitude 200 V) and a linear voltage gradient along the axis of ion transmission such that collision cross section (CCS) values could be determined directly.
(§4) Mass spectra were acquired with instrument set to 10 volts for sample cone and 200 volts for collision voltage.
(§5) The preservation of native structure is most likely due to the charge reducing behaviour of C8E4, as well as other polyoxyalkylene glycol detergents, which results in a two to five fold reduction in activation energy. In addition, under ELAB values slightly greater than 1500, the CCS value increases consistent with partial unfolding. More importantly, gas-phase unfolding can be observed for these membrane complexes at ELAB values of 1750 to 2250. These gas-phase unfolding transitions can be altered in the presence of a drug molecule that stabilises protein structure, thereby enabling the detection of drug molecules that stabilise protein structure.

Test [4] concerns the target T2, Aquaporin Z (AQPZ). The test is described as follows: Mass spectra and ion mobility MS of AQPZ complex in three detergents (Example 2). Also noted: species or system E. coli. The conditions noted are these: for experimental collisional cross section (CCS) / folded state: AQPZ, IM-MS, CIU fingerprints, C8E4 at ELAB <1500; for species in mass spectrum (expected oligomer versus dissociation products): tetrameric AQPZ, sample cone 10 volts, collision voltage 200 volts. How it is done:
as §1, §2, §3, §4, §5

On to “1-palrnitoyl-2-oleoyl-sn-glycero-3-phosphocholine (16:0-18:1) [PC]”, for which the “# Bound (number of resolvable phospholipids bound)” value (“# Bound” for short) (in test [1]; on ammonia channel (AmtB); on Aquaporin Z (AQPZ) [2]) was 3 throughout. Further, the bound phospholipid molecules result on Aquaporin Z (AQPZ) [2] (AQPZ tetramer, mass spectra and ion mobility (FIG. 9)) is given as “up to four”. In addition, on Aquaporin Z (AQPZ) [2] (AQPZ, collision voltage 130 V (FIG. 6a)), the “bound phospholipid molecules resolved” value is “one to six”.

As to `CCCCCCCC/C=C\CCCCCCCCCCCC(=O)OC[C@H](COP(=O)([O-])OCC[N+](C)(C)C)OC(=O)CCCCCCCCCCC/C=C\CCCCCCCC` (stereo in doubt) [DEPC, 1 ,2-dierucoyl-sn-glycero-3-phosphocholine (22:1 Cis)], the “# Bound” value in test [1] was determined as 2.

Take `CCCCCCCC/C=C\CCCCCCCCCC(=O)OC[C@H](COP(=O)([O-])OCC[N+](C)(C)C)OC(=O)CCCCCCCCC/C=C\CCCCCCCC` (stereo in doubt) [DIPC, 1,2-dieicosenoyl-sn-glycero-3-phosphocholine (20:1 Cis)]: the “# Bound” value in test [1] was determined as 2.

As to `CCCC/C=C\CCCCCCCC(=O)OC[C@H](COP(=O)([O-])OCC[N+](C)(C)C)OC(=O)CCCCCCC/C=C\CCCC` (stereo in doubt) [DMPC, 1,2-dimyristoleoyl-sn-glycero-3-phosphocholine (14:1 Cis)], the “# Bound” value in test [1] amounted to 2.

For `CCCCCCCC/C=C\CCCCCCCCCCCCCC(=O)OC[C@H](COP(=O)([O-])OCC[N+](C)(C)C)OC(=O)CCCCCCCCCCCCC/C=C\CCCCCCCC` (stereo in doubt) [DNPC, 1,2-dinervonoyl-sn-glycero-3-phosphocholine (24:1 Cis)], in test [1], the “# Bound” value stood at 2.

Take `CCCCCCCC/C=C\CCCCCCCC(=O)OC[C@H](COP(=O)([O-])OCC[N+](C)(C)C)OC(=O)CCCCCCC/C=C\CCCCCCCC` (stereo in doubt) [DOPC, 1,2-dioleoyl-sn-glycero-3-phosphocholine (18:1 Cis)]: the “# Bound” value in test [1] was found to be 2.

In the case of `CCCCCC/C=C\CCCCCCCC(=O)OC[C@H](COP(=O)([O-])OCC[N+](C)(C)C)OC(=O)CCCCCCC/C=C\CCCCCC` (stereo in doubt) [DPPC, 1,2-dipalmitoleoyl-sn-glycero-3-phosphocholine (16:1 Cis)], the “# Bound” value in test [1] worked out at 2.

Regarding `CCCCCCCCOCCOCCOCCOCCO` [C8E4, tetraethylene glycol monooctyl ether], the “Zavg (mean charge state)” value in test [3] worked out at 21.3. Besides, on ammonium channel (AmtB), the “experimental collisional cross section (CCS) / folded state” value is recorded as “consistent with calculated CCS values from their respective crystal structure” and the “species in mass spectrum (expected oligomer versus dissociation products)” value is given as “no observable dissociation products”. On Aquaporin Z (AQPZ) [4], the “experimental collisional cross section (CCS) / folded state” value is recorded as “consistent with calculated CCS values from their respective crystal structure” and the “species in mass spectrum (expected oligomer versus dissociation products)” value is reported as “no observable dissociation products”.

Take `OC[C@H]1O[C@H](O[C@H]2[C@H](O)[C@@H](O)[C@H](OCCCCCC3CCCCC3)O[C@@H]2CO)[C@H](O)[C@@H](O)[C@@H]1O` [Cy5, Cymal-5]: the “Zavg (mean charge state)” value in test [3] is 31.3.

As to `OC[C@H]1O[C@H](O[C@H]2[C@H](O)[C@@H](O)[C@H](OCCCCCCC3CCCCC3)O[C@@H]2CO)[C@H](O)[C@@H](O)[C@@H]1O` [Cy6, Cymal-6], in test [3], the “Zavg (mean charge state)” value is listed as 30.5.

`CCCCCCCCCCCCO[C@@H]1O[C@H](CO)[C@@H](O[C@H]2O[C@H](CO)[C@@H](O)[C@H](O)[C@H]2O)[C@H](O)[C@H]1O` [DDM, n-Dodecyl-β-D-maltoside]: the “Zavg (mean charge state)” value in test [3] is recorded as 30.4. Also, at ammonium channel (AmtB), the “experimental collisional cross section (CCS) / folded state” value is “all unfolded CCS values” and the “species in mass spectrum (expected oligomer versus dissociation products)” value is “mainly dissociation products”. On Aquaporin Z (AQPZ) [4], the “experimental collisional cross section (CCS) / folded state” value is “all unfolded CCS values” and the “species in mass spectrum (expected oligomer versus dissociation products)” value is given as “mainly dissociation products”.

Take `CCCCCCCCCCCCS[C@@H]1O[C@H](CO)[C@@H](O[C@H]2O[C@H](CO)[C@@H](O)[C@H](O)[C@H]2O)[C@H](O)[C@H]1O` [DDTM, n-Dodecyl-β-D-thiomaltopyranoside]: the “Zavg (mean charge state)” value in test [3] stood at 30.0.

For the compound `CCCCCCCCCCO[C@@H]1O[C@H](CO)[C@@H](O[C@H]2O[C@H](CO)[C@@H](O)[C@H](O)[C@H]2O)[C@H](O)[C@H]1O` [DM, n-Decyl-β-D-maltoside], in test [3], the “Zavg (mean charge state)” value is given as 31.4.

With `CCCCCCCCO[C@@H]1O[C@H](CO)[C@@H](O)[C@H](O)[C@H]1O` [OG, n-Octyl-β-D-glucopyranoside], the “Zavg (mean charge state)” value in test [3] came to 31.2.

As for `CCCCCCCCS[C@@H]1O[C@H](CO)[C@@H](O)[C@H](O)[C@H]1O` [OTG, n-Octyl-β-D-thioglucopyranoside], the “Zavg (mean charge state)” value in test [3] was 31.9.

As for `CCCCCCCC/C=C\CCCCCCCC(=O)OC[C@H](COP(=O)(O)O[C@H]1C(O)C(O)C(O)[C@@H](OP(=O)(O)O)C1O)OC(=O)CCCCCCC/C=C\CCCCCCCC` (stereo partly drawn) [PI], the “# Bound” value in test [1] turned out to be 4.

As for `CCCCCCCCCCCOC1OC(CO)C(OC2OC(CO)C(O)C(O)C2O)C(O)C1O` [UDM, n-Undecyl-β-D-maltoside], the “Zavg (mean charge state)” value in test [3] is on record as 30.3.

For the compound “L-α-phosphatidylethanolamine (E. coli) [PE]”, the “# Bound” value in test [1] was 1; at ammonia channel (AmtB), 2; at Aquaporin Z (AQPZ) [2], 1.

In the case of Octyl Glucose Neopentyl Glycol [OGNG], the “Zavg (mean charge state)” value in test [3] amounted to 27.9.

On to “polyethylene glycol tert-octylphenyl ether [TX100]”, for which, in test [3], the “Zavg (mean charge state)” value came out at 21.6.

Take “polyoxyethylene (8) dodecyl ether [C12E8]”: the “Zavg (mean charge state)” value in test [3] was determined as 25.8.

Regarding “polyoxyethylene (20) cetyl ether [C16E20]”, in test [3], the “Zavg (mean charge state)” value came to 25.0.
